Experimental data: patent US10577373B2, “TYK2 inhibitors and uses thereof” (Nimbus Lakshmi, Inc., priority 2017, dated 2020)
Like-named read-outs stand apart in the source and are kept apart here.

Experiments:
[1] = tested on: GM-CSF induced STAT5 phosphorylation mediated by the JAK2/JAK2 homdimeric complex; experiment: GM-CSF Induced pSTAT5 in Human PBMC
Source text: Human PBMC are isolated from buffy coat and are stored frozen for assays as needed.

[2] = tested on: IL-12 induced STAT4 phophorylation mediated by Tyk2/JAK2 (heterodimeric complex); experiment: IL-12 Induced pSTAT4 in Human PBMC; format: cell-based; conditions: 1.7 ng/mL IL-12
Source text: The IL-12 Induced pSTAT4 assay evaluates the inhibition of IL-12 induced STAT4 phophorylation mediated by Tyk2/JAK2 (heterodimeric complex).

[3] = Homo sapiens, PBMC, 20 min, read-out: PBMC_GMCSF_pSTAT5 IC50, human PBMC, GM-CSF 5 ng/mL for 20 minutes, pSTAT5
[4] = read-out: PBMC_GMCSF_pSTAT5 IC50, human PBMC, GM-CSF 5 ng/mL for 20 minutes, pSTAT5

Compound	IC50 [1, 3] [nM]	IC50 [2] [nM]	IC50 ([1]; Homo sapiens, PBMC, 20 min, read-out: PBMC_GMCSF_pSTAT5 IC50) [nM]	IC50 [1, 4] [nM]
CNc1cc(Nc2cc(C)cn(-c3cnn(C)c3)c2=O)nc2c(C(=O)NC3CC3)cnn12 [I-233]	> 50000	< 100	–	–
CNc1cc(Nc2cccn(-c3cnco3)c2=O)nc2c(C(=O)N[C@@H]3C[C@@H]3F)cnn12 [I-762]	> 2500	< 100	–	–
CNc1cc(-c2cn(C3CC3)c3ncccc23)nc2c(C(=O)N[C@H]3CC[C@H]3O)cnn12 [I-992, 5-(1-cyclopropyl-1H-pyrrolo[2,3-b]pyridin-3-yl)-N-((1S,2R)-2-hydroxycyclobutyl)-7-(methylamino)pyrazolo[1,5-a]pyrimidine-3-carboxamide]	> 50000	< 100	–	–
CNc1cc(Nc2cccn(-c3cnc(C)o3)c2=O)nc2c(C(=O)N[C@H]3C[C@H]3F)cnn12 [I-718]	> 12500	< 100	–	–
CNc1cc(Nc2cccnc2OC)nc2c(C(=O)NOC(C)(C)C)cnn12 [I-612, N-(tert-butoxy)-5-((2-methoxypyridin-3-yl)amino)-7-(methylamino) pyrazolo[1,5-a]pyrimidine-3-carboxamide]	–	[…]	> 50000	–
CNc1cc(Nc2cc(Cl)cn([C@H]3CCCOC3)c2=O)nc2c(C(=O)NC3CC3)cnn12 [I-782]	> 50000	< 100	–	–
CNc1cc(Nc2cc(F)cn(-c3ccccn3)c2=O)nc2c(C(=O)NC3CCC3)cnn12 [I-193]	> 12500	< 100	–	–
CNc1cc(Nc2cc(C)cnc2OC2CC2)nc2c(C(=O)NC3CC3)cnn12 [I-277]	> 50000	100 to 500	–	–
CNc1cc(Nc2cccnc2OCCOC)nc2c(C(=O)NC3CCC3)cnn12 [I-219]	> 12500	< 100	–	–
CNc1cc(Nc2cccn(C3CCN(CCF)CC3)c2=O)nc2c(C(=O)NCC(C)(C)CO)cnn12 [I-847]	> 50000	100 to 500	–	–
CNc1cc(Nc2cc(F)cnc2OC)nc2c(C(=O)NCC(C)(C)CO)cnn12 [I-283]	> 50000	< 100	–	–
CNc1cc(Nc2cc(Cl)cn([C@@H]3CCCN(C)C3)c2=O)nc2c(C(=O)NC3CC3)cnn12 [I-819]	> 50000	< 100	–	–
CNc1cc(Nc2cc(Cl)cn([C@H]3CCCN(C)C3)c2=O)nc2c(C(=O)NC3CC3)cnn12 [I-820]	> 12500	< 100	–	–
CNc1cc(Nc2cccn(-c3ccn(C)n3)c2=O)nc2c(C(=O)NC3CCC3)cnn12 [I-139]	> 50000	< 100	–	–
CNc1cc(Nc2cc(Cl)cn([C@@H]3CCCOC3)c2=O)nc2c(C(=O)NC3CC3)cnn12 [I-783]	> 50000	< 100	–	–
CNc1cc(Nc2cccn(-c3cnc(C(=O)N(C)C)cn3)c2=O)nc2c(C(=O)NC3CCC3)cnn12 [I-122]	> 2500	< 100	–	–
CNc1cc(Nc2cccn(-c3nc(C)co3)c2=O)nc2c(C(=O)N[C@H]3C[C@H]3F)cnn12 [I-369]	> 50000	< 100	–	–
CNc1cc(Nc2cccc(N3CCOC3=O)n2)nc2c(C(=O)N[C@H]3C[C@H]3F)cnn12 [I-236]	> 2500	< 100	–	–
CNc1cc(-c2cn(C(C)C)c3ncc(Cl)cc23)nc2c(C(N)=O)cnn12 [I-272, 5-(5-chloro-1-isopropyl-1H-pyrrolo[2,3-b]pyridin-3-yl)-7-(methylamino) pyrazolo[1,5-a]pyrimidine-3-carboxamide]	> 12500	< 100	–	–

Compound	IC50 [1, 3] [nM]	IC50 [2] [nM]	IC50 ([1]; Homo sapiens, PBMC, 20 min, read-out: PBMC_GMCSF_pSTAT5 IC50) [nM]	IC50 [1, 4] [nM]
CNC(=O)c1occc1Nc1cc(NC)n2ncc(C(=O)N[C@@H]3C[C@@H]3F)c2n1 [I-888, N-((1R,2S)-2-fluorocyclopropyl)-7-(methylamino)-5-((2-(methylcarbamoyl)furan-3-yl)amino)pyrazolo[1,5-a]pyrimidine-3-carboxamide]	> 50000	< 100	–	–
CNc1cc(Nc2cccc(C)c2Cl)nc2c(C(N)=O)cnn12 [I-14]	> 50000	< 100	–	–
CNc1cc(Nc2cccc(C3CCCOC3)n2)nc2c(C(=O)N[C@@H]3C[C@@H]3F)cnn12 (stereo partly drawn) [I-522]	> 50000	< 100	–	–
CNc1cc(Nc2cc(Cl)cn(-c3cc(C)n(C)n3)c2=O)nc2c(C(=O)NC3CC3)cnn12 [I-314]	> 2500	< 100	–	–
CNc1cc(Nc2cccn([C@@H]3CCCOC3)c2=O)nc2c(C(=O)N[C@@H]3C[C@@H]3F)cnn12 [I-474]	> 12500	< 100	–	–
CNc1cc(Nc2cccn(-c3ccon3)c2=O)nc2c(C(=O)NC3CCC3)cnn12 [I-158]	> 50000	< 100	–	–
CNc1cc(Nc2cccc(N3CCO[C@]4(CCOC4)C3)n2)nc2c(C(=O)NC3CC3)cnn12 [I-827]	> 50000	100 to 500	–	–
CNc1cc(Nc2cc(Cl)cn([C@H]3CCCOC3)c2=O)nc2c(C(=O)N[C@@H]3C[C@@H]3F)cnn12 [I-772]	> 300	< 100	–	–
CNc1cc(Nc2cccc3ocnc23)nc2c(C(=O)NC3CC3)cnn12 [I-591]	> 12500	< 100	–	–
CNc1cc(-c2cn(C(C)C)c3ncccc23)nc2c(C(N)=O)cnn12 [I-222, 5-(1-isopropyl-1H-pyrrolo[2,3-b]pyridin-3-yl)-7-(methylamino)pyrazolo[1,5-a]pyrimidine-3-carboxamide]	> 2500	< 100	–	–
CNc1cc(Nc2cccn(-c3cccnc3)c2=O)nc2c(C(=O)NC3CC3)cnn12 [I-747]	> 12500	100 to 500	–	–
[2H]C([2H])([2H])Oc1ncc(F)cc1Nc1cc(NC)n2ncc(C(=O)NC3CC3)c2n1 [I-284]	> 12500	< 100	–	–
CNc1cc(Nc2cccn(-c3ccc(C4CC4)nn3)c2=O)nc2c(C(=O)NC3CCC3)cnn12 [I-240]	> 2500	< 100	–	–
CNc1cc(Nc2cccn3ccnc23)nc2c(C(=O)NC3CC3)cnn12 [I-891]	> 50000	< 100	–	–
CNc1cc(Nc2cccn(-c3ncc(C)s3)c2=O)nc2c(C(=O)N[C@@H]3CC[C@@H]3O)cnn12 [I-677]	–	< 100	–	> 2500
CNc1cc(Nc2cc(Cl)cn(C3CCN(C)CC3)c2=O)nc2c(C(=O)NC3CC3)cnn12 [I-883]	> 12500	< 100	–	–
CNC(=O)c1nscc1Nc1cc(NC)n2ncc(C(=O)N[C@@H]3C[C@@H]3F)c2n1 [I-914]	> 50000	< 100	–	–
CNc1cc(Nc2cc(F)cnc2OC(C)C)nc2c(C(=O)N[C@H]3C[C@H]3F)cnn12 [I-211]	> 50000	100 to 500	–	–
CNc1cc(Nc2cccnc2OC)nc2c(C(=O)N[C@@H]3CC[C@H]3O)cnn12 [I-396]	> 50000	< 100	–	–

Compound	IC50 [1, 3] [nM]	IC50 [2] [nM]	IC50 ([1]; Homo sapiens, PBMC, 20 min, read-out: PBMC_GMCSF_pSTAT5 IC50) [nM]	IC50 [1, 4] [nM]
CNc1cc(Nc2cccn(-c3cnn(CC4CCOCC4)c3)c2=O)nc2c(C(=O)N[C@H]3C[C@H]3F)cnn12 [I-407]	> 12500	< 100	–	–
CNc1cc(Nc2cccnc2OC2CCC2)nc2c(C(=O)N[C@H]3C[C@H]3F)cnn12 [I-170]	> 50000	< 100	–	–
CNc1cc(Nc2cccn([C@@H]3CCC[C@H](OC)C3)c2=O)nc2c(C(=O)N[C@@H]3C[C@@H]3F)cnn12 [I-840]	> 50000	< 100	–	–
CNc1cc(Nc2cccn(-c3ccccn3)c2=O)nc2c(C(=O)N[C@@H]3CC[C@H]3OC)cnn12 (stereo in doubt) [I-816, N-(2-methoxycyclobutyl)-7-(methylamino)-5-((2-oxo-2H-[1,2′-bipyridin]-3-yl)amino)pyrazolo[1,5-a]pyrimidine-3-carboxamide]	–	< 100	–	> 2500
CNc1cc(Nc2cc(F)cn([C@H]3CCCOC3)c2=O)nc2c(C(=O)N[C@H]3C[C@H]3F)cnn12 [I-559]	> 50000	< 100	–	–
CNc1cc(Nc2cccn(C3CCCOC3)c2=O)nc2c(C(=O)NC3CCC3)cnn12 (racemic) [I-324]	> 50000	< 100	–	–
CNc1cc(Nc2cccnc2OC)nc2c(C(=O)NC3CCC3O)cnn12 (stereo not drawn) [I-390, N-(2-hydroxycyclobutyl)-5-((2-methoxypyridin-3-yl)amino)-7-(methylamino) pyrazolo[1,5-a]pyrimidine-3-carboxamide]	> 50000	< 100	–	–
CNc1cc(Nc2cc(F)cn(-c3ccc(C)nn3)c2=O)nc2c(C(=O)N[C@H]3C[C@H]3F)cnn12 [I-198]	> 2500	< 100	–	–
CNc1cc(Nc2cccc3ocnc23)nc2c(C(=O)N[C@@H]3CC[C@@H]3O)cnn12 [I-770]	–	< 100	–	> 2500
CNc1cc(Nc2cccc3ocnc23)nc2c(C(=O)N[C@H]3C[C@H]3F)cnn12 [I-592]	> 12500	< 100	–	–
CNc1cc(Nc2cc(C)cc(F)c2)nc2c(C(=O)NC3CC3)cnn12 [I-6]	> 50000	< 100	–	–
CNc1cc(Nc2cc(C)cn(-c3ccn(C)n3)c2=O)nc2c(C(=O)N[C@H]3C[C@H]3F)cnn12 [I-250]	> 12500	< 100	–	–
CNc1cc(Nc2cc(Cl)cn(-c3ncc(C)s3)c2=O)nc2c(C(=O)N[C@H]3C[C@H]3F)cnn12 [I-323]	> 2500	< 100	–	–
CNc1cc(Nc2cccn(-c3cc(C)on3)c2=O)nc2c(C(=O)NC3CC3)cnn12 [I-162]	> 2500	< 100	–	–
CNc1cc(Nc2cccn(-c3cc(C)n(C)n3)c2=O)nc2c(C(=O)N[C@H]3C[C@H]3F)cnn12 [I-137]	> 50000	< 100	–	–
CNc1cc(Nc2cccn([C@H]3CCCOC3)c2=O)nc2c(C(=O)NC3CCC3)cnn12 [I-354]	> 2500	< 100	–	–
CNc1cc(Nc2cccc(-c3nccs3)c2Cl)nc2c(C(N)=O)cnn12 [I-16]	> 2500	< 100	–	–
CNc1cc(Nc2cccn(-c3ccc(F)cn3)c2=O)nc2c(C(=O)NC3CCC3)cnn12 [I-238]	> 50000	< 100	–	–
CNc1cc(Nc2cccc(N3CCC34COC4)n2)nc2c(C(=O)N[C@H]3C[C@H]3F)cnn12 [I-709]	> 50000	< 100	–	–
